Patent US12391671B2, “Allosteric EGFR inhibitors and methods of use thereof” (Dana-Farber Cancer Institute, Inc., priority 2019, dated 2025)
pIC50: −log10 of the molar value. Structures can show the parent of a compound that is named as a salt. Where two headings read alike, the source gives them in different places.

Tests used:
[1] = test system: EGFR mutant L858R/T790M Ba/F3 cells; test: Ba/F3 cell proliferation model (Cell Titer Glo), EGFR L858R/T790M; format: cell-based, murine; details: 72 hours
Method in brief: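 Retrovirally transduced Ba/F3 cells exposed 72 h to compound alone or with 1 μg/mL cetuximab, triplicate points, repeated at least three times. Viability by Cell Titer Glo luminescence (ATP); curves fitted by non-linear sigmoidal dose-response regression.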

[2] = test system: EGFR mutant L858R Ba/F3 cells; test: Ba/F3 cell proliferation model (Cell Titer Glo), EGFR L858R; format: cell-based, murine; details: 72 hours
Description: Example 26: Ba/F3 Cell Proliferation Models
The EGFR mutant L858R and L858R/T790M Ba/F3 cells have been previously described (Zhou, W., et al. Nature 462, 2009, 1070-1074). All cell lines were maintained in RPM 1640 (Cellgro; Mediatech Inc., Herndon. CA) supplemented with 10% FBS, 100 units/mL penicillin, 100 units/mL streptomycin. The EGFR I941R mutation was introduced via site directed mutagenesis using the Quick Change Site-Directed Mutagenesis kit (Stratagene; La Jolla, CA) according to the manufacturer's instructions. All constructs were confirmed by DNA sequencing. The constructs were shuttled into the retroviral vector JP1540 using the Cre-recombination system (Agilent Technologies, Santa Clara, CA). Ba/F3 cells were then infected with retrovirus per standard protocols, as described previously (Zhou, et al, Nature 2009). Stable clones were obtained by selection in puromycin (2 μg/ml).
Growth and inhibition of growth was assessed by the Cell Titer Glo® assay (Promega, Madison, WI) and was performed according to the manufacturer's instructions. The Cell Titer Glo® assay is a luminescence-based method used to determine the number of viable cells based on quantitation of the ATP present, which is directly proportional to the amount of metabolically active cells present. Ba/F3 cells of different EGFR genotypes were exposed to compounds as a single agent or in combination with 1 μg/mL cetuximab for 72 hours and the number of cells used per experiment was determined empirically as has been previously established (Zhou, et al., Nature 2009). All experimental points were set up in triplicates in 384-well plates and all experiments were repeated at least three times. […] The curves were fitted using a non-linear regression model with a sigmoidal dose response.

EGFR L858R/T790M = EGFR L858R/T790M (Homo sapiens (Human), UniProt P00533, L858R/T790M); test: HTRF-based EGFR biochemical assay (L858R/T790M); details: 100 μM ATP, enzyme 0.02 nM
Method in brief: (§1)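 Mutant EGFR (L858R 0.1 nM, L858R/T790M 0.02 nM) preincubated 30 min with compounds at room temperature in HEPES pH 7.0 buffer with Mg2+/Mn2+, then reacted 20 min with 1 μM biotinylated tyrosine kinase peptide and 100 μM ATP. Phosphorylation read by HTRF (Eu-cryptate anti-phosphotyrosine/streptavidin-XL665, 665/620 nm) after EDTA quench.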

EGFR L858R = EGFR L858R (Homo sapiens (Human), UniProt P00533, L858R); test: HTRF-based EGFR biochemical assay (L858R); details: 100 μM ATP, enzyme 0.1 nM
Method in brief: as §1

[3] = Mus musculus, BaF3, single agent, read-out: Cell IC50 BaF3 EGFR L858R/T790M
[4] = Mus musculus, BaF3, single agent, read-out: Cell IC50 BaF3 EGFR L858R
[5] = in combination with 1 μg/mL cetuximab, read-out: Cell IC50 BaF3 EGFR L858R/T790M (+cetux.)

Chain of EGFR L858R/T790M (P00533 25-1210 T790M/L858R): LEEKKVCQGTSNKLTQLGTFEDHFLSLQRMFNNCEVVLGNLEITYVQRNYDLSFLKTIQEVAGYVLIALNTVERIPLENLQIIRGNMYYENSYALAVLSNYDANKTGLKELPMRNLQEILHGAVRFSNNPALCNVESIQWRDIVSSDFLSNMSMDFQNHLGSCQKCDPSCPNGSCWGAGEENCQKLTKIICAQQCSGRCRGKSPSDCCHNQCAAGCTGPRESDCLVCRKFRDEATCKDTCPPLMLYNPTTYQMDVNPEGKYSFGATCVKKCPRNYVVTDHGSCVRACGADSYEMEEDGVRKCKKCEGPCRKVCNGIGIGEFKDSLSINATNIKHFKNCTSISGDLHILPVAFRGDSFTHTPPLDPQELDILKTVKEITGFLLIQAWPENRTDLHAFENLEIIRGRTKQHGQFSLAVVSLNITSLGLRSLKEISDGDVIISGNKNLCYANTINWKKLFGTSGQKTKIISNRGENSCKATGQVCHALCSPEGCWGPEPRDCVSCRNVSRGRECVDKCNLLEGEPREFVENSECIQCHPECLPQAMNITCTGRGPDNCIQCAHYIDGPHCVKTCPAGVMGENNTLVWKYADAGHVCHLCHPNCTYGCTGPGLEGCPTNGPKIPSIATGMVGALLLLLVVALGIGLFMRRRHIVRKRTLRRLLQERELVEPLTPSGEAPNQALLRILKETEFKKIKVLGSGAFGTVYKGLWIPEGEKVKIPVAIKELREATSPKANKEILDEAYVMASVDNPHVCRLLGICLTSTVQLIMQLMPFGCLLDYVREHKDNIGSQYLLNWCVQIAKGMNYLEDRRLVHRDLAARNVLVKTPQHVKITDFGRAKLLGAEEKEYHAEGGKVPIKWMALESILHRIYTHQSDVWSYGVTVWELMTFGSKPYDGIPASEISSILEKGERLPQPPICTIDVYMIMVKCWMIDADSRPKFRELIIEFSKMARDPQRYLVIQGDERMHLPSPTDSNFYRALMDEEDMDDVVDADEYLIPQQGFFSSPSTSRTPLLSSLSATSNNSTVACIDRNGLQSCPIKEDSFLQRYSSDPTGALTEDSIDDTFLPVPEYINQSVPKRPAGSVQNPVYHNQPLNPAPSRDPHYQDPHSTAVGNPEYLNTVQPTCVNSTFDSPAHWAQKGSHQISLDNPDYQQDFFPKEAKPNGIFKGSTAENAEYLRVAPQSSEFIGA
Chain of EGFR L858R (P00533 25-1210 L858R): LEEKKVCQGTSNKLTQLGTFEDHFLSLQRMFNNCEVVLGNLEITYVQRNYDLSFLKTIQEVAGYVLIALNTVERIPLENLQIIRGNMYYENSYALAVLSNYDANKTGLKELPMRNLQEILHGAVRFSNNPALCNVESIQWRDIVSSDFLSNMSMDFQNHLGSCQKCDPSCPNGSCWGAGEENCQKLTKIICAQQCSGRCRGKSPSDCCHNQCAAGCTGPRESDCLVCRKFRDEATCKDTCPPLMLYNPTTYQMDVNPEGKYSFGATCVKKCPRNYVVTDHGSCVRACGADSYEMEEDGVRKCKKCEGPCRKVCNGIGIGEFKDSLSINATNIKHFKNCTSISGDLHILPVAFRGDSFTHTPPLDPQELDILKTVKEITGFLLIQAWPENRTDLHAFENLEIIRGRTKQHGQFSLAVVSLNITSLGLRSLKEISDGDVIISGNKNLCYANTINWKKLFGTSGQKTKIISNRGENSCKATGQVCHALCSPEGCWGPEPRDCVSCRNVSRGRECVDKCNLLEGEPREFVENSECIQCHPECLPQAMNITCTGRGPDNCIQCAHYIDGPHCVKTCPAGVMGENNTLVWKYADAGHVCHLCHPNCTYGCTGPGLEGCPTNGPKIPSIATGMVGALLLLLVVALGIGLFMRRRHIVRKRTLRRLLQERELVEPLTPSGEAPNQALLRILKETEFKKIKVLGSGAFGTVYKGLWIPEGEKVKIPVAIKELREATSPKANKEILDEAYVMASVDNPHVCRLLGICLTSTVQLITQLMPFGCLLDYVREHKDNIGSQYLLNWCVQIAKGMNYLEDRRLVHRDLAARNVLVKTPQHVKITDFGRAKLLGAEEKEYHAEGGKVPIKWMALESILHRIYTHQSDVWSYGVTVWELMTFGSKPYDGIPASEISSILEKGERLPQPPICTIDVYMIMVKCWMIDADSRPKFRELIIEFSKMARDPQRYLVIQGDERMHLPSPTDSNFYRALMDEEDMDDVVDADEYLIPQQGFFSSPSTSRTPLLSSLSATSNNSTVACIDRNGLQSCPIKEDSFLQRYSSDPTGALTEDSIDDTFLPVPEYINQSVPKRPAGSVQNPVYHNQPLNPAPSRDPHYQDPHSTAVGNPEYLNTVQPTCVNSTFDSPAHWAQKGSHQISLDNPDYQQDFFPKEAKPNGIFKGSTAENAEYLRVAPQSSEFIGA

pIC50 [1, 3] | pIC50 [2, 4] | pIC50 [1, 5] | pIC50 ([2]; in combination with 1 μg/mL cetuximab, read-out: Cell IC50 BaF3 EGFR L858R (+cetux.)) | pIC50 (EGFR L858R/T790M) | pIC50 (EGFR L858R) | SMILES
5.23 | 5.34 |  |  |  |  | Cc1nnc(C(c2cc(F)ccc2O)N2Cc3ccc(-c4ccc(C5CCN(C)CC5)cc4)cc3C2=O)[nH]1 (stereo not shown) [Compound 089, 2-[(5-fluoro-2-hydroxy-phenyl)-(5-methyl-4H-1,2,4-triazol-3-yl)methyl]-6-[4-(1-methyl-4-piperidyl)phenyl]isoindolin-1-one;hydrochloride]
6.36 | 5.87 | 8.22 | 6.77 |  |  | CN1CCC(c2ccc(-c3ccc4c(c3)C(=O)N(C(c3nc5cccc(F)c5[nH]3)c3cc(F)ccc3O)C4)cc2)CC1 (stereo not shown) [Compound 020, 2-[(7-Fluoro-1H-benzimidazol-2-yl)-(5-fluoro-2-hydroxy-phenylmethyl]-6-(4-(1-methy-4-piperidyl)phenyl]isoindolin-1-one; hydrochloride]
5.26 |  | 6.96 |  | 7.74 | 7.57 | CN1CCC(n2cc(-c3ccc4c(c3)C(=O)N(C(c3nc5ccccc5[nH]3)c3cc(F)ccc3O)C4)cn2)CC1 (stereo not shown) [Compound 060, 2-[1H-benzimidazol-2-yl-(5-fluoro-2-hydroxy-phenyl)-methyl]-6-[1-(1-methyl-4-piperidyl)pyrazol-4-yl]isoindolin-1-one; hydrochloride]
5.85 |  | 7.30 |  | 8.70 | 8.05 | CN1CCC(c2ccc(-c3ccc4ncn(C(c5ccccc5)c5nc6ccccc6[nH]5)c(=O)c4c3F)cc2)CC1 (stereo not shown) [Compound 003, 3-((1H-Benzo[d]imidazol-2-yl)(phenyl)methyl)-5-fluoro-6-(4-(1-methylpiperidin-4-yl)phenyl)quinazolin-4(3H)-one 2,2,2-trifluoroacetate]
5.44 |  | 6.28 |  | 7.38 | 6.29 | COc1ccc(F)cc1C(c1nc2ccccc2[nH]1)n1cc2ccc(-c3ccc(C4CCN(C)CC4)cc3)c(F)c2n1 (stereo not shown) [Compound 035, 2-[1H-benzimidazol-2-yl-(5-fluoro-2-methoxy-phenyl)methyl]-7-fluoro-6-[4-(1-methyl-4-piperidyl)phenyl]indazole]
5.89 |  | 8.00 |  | 8.10 | 7.92 | CN1CC(Oc2ccc(-c3ccc4c(c3)C(=O)N(C(c3nc5ccccc5[nH]3)c3cc(F)ccc3O)C4)cc2)C1 (stereo not shown) [Compound 056, 2-[1H-benzimidazol-2-yl-(5-fluoro-2-hydroxy-phenyl)methyl]-6-[4-(1-methylazetidin-3-yl)oxyphenyl]isoindolin-1-one;dihydrochloride]
5.35 |  | 6.85 |  | 8.40 | 7.77 | CN1CCC(c2ccc(-c3ccc4ncn(C(c5ccccc5)c5nc6ccccc6[nH]5)c(=O)c4c3)cc2)CC1 (stereo not shown) [Compound 002, 3-[1H-Benzimidazol-2-yl(phenyl)methyl]-6-[4-(1-methyl-4-piperidyl)phenyl]quinazolin-4-one]
6.26 |  | 8.00 |  | 7.77 | 7.43 | O=C1c2cc(-c3ccc(-c4cn[nH]c4)cc3)ccc2CN1C(c1nc2ccccc2[nH]1)c1cc(F)ccc1O (stereo not shown) [Compound 057, 2-[1H-benzimidazol-2-yl-(5-fluoro-2-hydroxy-phenyl)-methyl]-6-[4-(1H-pyrazol-4-yl)-phenyl]isoindolin-1-one]
5.73 |  | 8.00 |  | 9.00 | 8.40 | CN1CCC(c2ccc(-c3ccc4c(c3)C(=O)N(C(c3nc5nccnc5[nH]3)c3cc(F)ccc3O)C4)cc2)CC1 (stereo not shown) [Compound 019, 2-[(5-Fluoro-2-hydroxy-phenyl)-(1H-imidazo[4,5-b]pyrazin-2-yl)methyl]-6-[4-(1-methyl-4-piperidyl)phenyl]isoindolin-1-one; hydrochloride]
5.64 |  | 7.10 |  | 8.15 | 7.59 | CN1CCC(c2ccc(-c3ccc4c(c3)C(=O)N(C(c3cccc(F)c3)c3nc5ccccc5[nH]3)C4)cc2)CC1 (stereo not shown) [Compound 026, 2-[1H-Benzimidazol-2-yl-(3-fluorophenyl)methyl]-6-[4-(1-methyl-4-piperidyl)phenyl]isoindolin-1-one]
6.10 |  | 7.70 |  | 7.96 | 7.16 | Nc1ccc(-c2ccc(-c3ccc4c(c3)C(=O)N(C(c3nc5ccccc5[nH]3)c3cc(F)ccc3O)C4)cc2)cn1 (stereo not shown) [Compound 061, 6-[4-(6-amino-3-pyridyl)phenyl]-2-[1H-benzimidazol-2-yl-(5-fluoro-2-hydroxy-phenyl)-methyl]isoindolin-1-one; hydrochloride]
5.82 |  | 7.30 |  | 8.70 | 8.22 | CN1CCC(c2ccc(-c3ccc4c(c3)C(=O)N(C(c3nc5ccccc5[nH]3)c3cc(Cl)ccc3O)C4)cc2)CC1 (stereo not shown) [Compound 044, 2-[1H-benzimidazol-2-yl-(5-chloro-2-hydroxy-phenyl)-methyl]-6-[4-(1-methyl-4-piperidyl)phenyl]isoindolin-1-one; hydrochloride]
6.55 |  | 7.85 |  | 9.30 | 8.54 | [2H]C1([2H])c2ccc(-c3ccc(C4CCN(C)CC4)cc3)cc2C(=O)N1C([2H])(c1nc2ccccc2[nH]1)c1cc(F)ccc1O (stereo not shown) [Compound 039, 2-((1H-Benzo[d]imidazol-2-yl)(5-fluoro-2-hydroxyphenyl)methyl-d)-6-(4-(1-methylpiperidin-4-yl)phenyl)isoindolin-1-one-3,3-d2]
5.27 |  | 6.77 |  | 8.30 | 7.38 | CN1CCC(c2ccc(-c3ccc4ncn(C(c5cccc(F)c5)c5nc6ccccc6[nH]5)c(=O)c4n3)cc2)CC1 (stereo not shown) [Compound 008, 3-((1H-Benzo[d]imidazol-2-yl)(3-fluorophenyl)methyl)-6-(4-(1-methylpiperidin-4-yl)phenyl)-pyrido[3,2-d]pyrimidin-4(3H)-one 2,2,2-trifluoroacetate]
6.59 |  | 8.22 |  | 9.40 | 9.00 | CN1CCC(c2ccc(-c3ccc4c(c3)C(=O)N(C(c3nc5ccccc5[nH]3)c3cc(F)ccc3O)C4)cc2F)CC1 (stereo not shown) [Compound 017, 2-[1H-Benzimidazol-2-yl-(5-fluoro-2-hydroxy-phenyl)methyl]-6-[3-fluoro-4-(1-methyl-4-piperidyl)phenyl]isoindolin-1-one; hydrochloride]
6.68 |  |  |  | 9.10 | 8.22 | CN1CCC(c2ccc(-c3ccc4c(c3F)C(=O)N(C(c3nc5c(F)cccc5[nH]3)c3cc(F)ccc3O)C4)cc2F)CC1 (stereo not shown) [Compound 081, 7-fluoro-2-[(4-fluoro-1H-benzimidazol-2-yl)-(5-fluoro-2-hydroxy-phenyl)methyl]-6-[3-fluoro-4-(1-methyl-4-piperidyl)phenyl]isoindolin-1-one; dihydrochloride]
5.85 |  | 7.70 |  | 7.92 | 7.17 | Cn1cc(-c2ccc(-c3ccc4c(c3)C(=O)N(C(c3nc5ccccc5[nH]3)c3cc(F)ccc3O)C4)cc2)cn1 (stereo not shown) [Compound 058, 2-[1H-benzimidazol-2-yl-(5-fluoro-2-hydroxy-phenyl)-methyl]-6-[4-(1-methylpyrazol-4-yl)phenyl]isoindolin-1-one; dihydrochloride]
5.72 |  | 8.00 |  | 8.00 | 7.82 | CN1CCC(C#Cc2ccc3c(c2)C(=O)N(C(c2nc4ccccc4[nH]2)c2cc(F)ccc2O)C3)CC1 (stereo not shown) [Compound 011, 2-[1H-benzimidazol-2-yl-(5-fluoro-2-hydroxy-phenyl)methyl]-6-[2-(1-methyl-4-piperidyl)-ethynyl]isoindolin-1-one; hydrochloride]

SMILES | pIC50 [1, 3] | pIC50 [2, 4] | pIC50 [1, 5] | pIC50 ([2]; in combination with 1 μg/mL cetuximab, read-out: Cell IC50 BaF3 EGFR L858R (+cetux.)) | pIC50 (EGFR L858R/T790M) | pIC50 (EGFR L858R)
Cc1ccc2[nH]c(C(c3cc(F)ccc3O)N3Cc4ccc(-c5ccc(C6CCN(C)CC6)cc5)cc4C3=O)nc2c1 (stereo not shown) [Compound 050, 2-[(5-fluoro-2-hydroxy-phenyl)-(5-methyl-1H-benzimidazol-2-yl)methyl]-6-[4-(1-methyl-4-piperidyl)phenyl]isoindolin-1-one; formic acid] | 5.41 |  | 6.07 |  | 8.70 | 7.68
